Source: PubChem BioAssay AID1996
Values after ≈ are worked out from the molar mass of the structure shown.

Conditions: buffer; pH 7.4; 200.0 µM

| SMILES | solubility kinetic [µg/mL] |
| --- | --- |
| CC(C)CC(=O)Nc1ccc2c(c1)nc(CCN1CCOCC1)n2C | > 51.7 |
| O=C(COC(=O)CCSc1ccccc1)Nc1ccccc1 | 41.6 (≈ 132 µM) |
| S=C(NC1CCCCC1)N1CCOCC1 | 33.8 (≈ 148 µM) |
| CCC(=O)Nc1nc(-c2cc([N+](=O)[O-])cs2)cs1 | 1 (≈ 3.53 µM) |
| Cc1ccc(C2N3CCCN23)cc1 (stereo unspecified) | > 26.1 |
| C=Cn1cc[n+](CC(=O)c2ccc(Br)cc2)c1.[Br-] | > 55.8 |
| CN(Cc1ccccc1)S(=O)(=O)c1ccccc1[N+](=O)[O-] | 15.3 (≈ 49.9 µM) |
| NC(=O)c1ccccc1NC(=O)CN1CCCCCC1 | > 41.3 |
| O=C(CCc1nc(-c2ccccc2Cl)no1)NC1CCCC1 | 23 (≈ 71.9 µM) |
| CC(CNC(=O)COC(=O)c1cccs1)c1ccccc1 (stereo unspecified) | > 45.5 |
| O=C(COc1ncnc2ccccc12)NCCc1ccccc1 | 44.8 (≈ 146 µM) |
| O=C(Nc1ccc(CN2CCOCC2)cc1)c1ccc(Br)cc1 | 0.6 (≈ 1.6 µM) |
| O=C(c1ccco1)N1CCN(S(=O)(=O)c2ccccc2)CC1 | > 48.1 |
| CC(C)(/C=N/O)/[N+]([O-])=C/c1ccccc1 | > 30.9 |
| O=C(CSc1nc2ccccc2c(=O)n1CCCO)NC1CC1 | > 50 |
| CCOC(=O)CNC(=S)NN(C)C | > 30.8 |
| Cc1ccc(S(=O)(=O)C2(C(=O)NCCc3ccccc3)CC2)cc1 | 50.5 (≈ 147 µM) |
| C=CCn1cccc(C(=O)Nc2ccc(SC)cc2)c1=O | 38.5 (≈ 128 µM) |
| O=C(O)C(Cc1ccccc1)N1C(=O)c2c(Cl)c(Cl)c(Cl)c(Cl)c2C1=O (stereo unspecified) | > 65 |
| O=C(NCc1cccc(Cl)c1)C1CCCO1 (stereo unspecified) | 31.3 (≈ 131 µM) |
| CCC(C(=O)OCC(=O)N1C(C)CCCC1C)c1ccccc1 (stereo unspecified) | 45.1 (≈ 142 µM) |
| CCN(CC)S(=O)(=O)c1ccc(N2CCOCC2)c(NC(=O)c2sccc2C)c1 | 11.4 (≈ 26.1 µM) |
| C=CCNc1cc(=O)n(Cc2ccccc2)c(=O)[nH]1 | 29.7 (≈ 115 µM) |
| CC1(c2ccccc2)NC(=O)N(CC(=O)Nc2ccc(N3CCOCC3)cc2)C1=O (stereo unspecified) | 27.6 (≈ 67.6 µM) |
| CC(=O)c1cc2c(cc1NC(=O)CN(C)S(=O)(=O)c1cccs1)OCO2 | 6.4 (≈ 16.1 µM) |
| CN1C(=O)OC(C)(C)C1=O | < 0.3 |
| O=C1CC2C(=O)NCCN2C(=NC(=O)c2ccccc2)N1 (stereo unspecified) | 41.2 (≈ 144 µM) |
| O=[N+]([O-])c1ccccc1Nc1ccccc1 | 1.1 (≈ 5.13 µM) |

The next lines start with the values.

| solubility kinetic [µg/mL] | SMILES |
| --- | --- |
| 0.9 (≈ 2.03 µM) | CCCS(=O)(=O)c1cscc1NC(=O)c1c(-c2c(F)cccc2Cl)noc1C |
| > 35.1 | CSCC(=O)Nc1ccc(F)c(Cl)c1 |
| 3 (≈ 8.62 µM) | Cc1cc(NC(=O)c2cc(-c3ccc(Br)cc3)on2)no1 |
| > 41 | COc1cc(/C=N/Nc2ccccn2)cc(OC)c1O |
| 4.5 (≈ 12.4 µM) | CSc1cccc(NC(=O)CCCNC(=O)c2ccc(Cl)cc2)c1 |
| 40.3 (≈ 148 µM) | COc1cccc(-n2cnc3sc(C)cc3c2=O)c1 |
| > 52.1 | COc1ccc(CNC(=O)C2CC(C)=C(C)CC2C(=O)O)cc1OC (stereo unspecified) |
| 7.6 (≈ 24.8 µM) | CCCOc1cccc(C(=O)Nc2cccc3ncccc23)c1 |
| 40.3 (≈ 131 µM) | CC(C)(C)CC(=O)Nc1ccc(-c2cn3cccnc3n2)cc1 |
| < 0.7 | COc1ccc(NC(=O)c2ccccc2Oc2ccccc2)cc1 |
| 3.2 (≈ 10.2 µM) | O=C(COc1ccc(Cl)cc1)Nc1ncc([N+](=O)[O-])s1 |
| 3.9 (≈ 12.1 µM) | Cc1ccc(C(=O)NCCn2ccc3ccccc32)cc1[N+](=O)[O-] |
| > 20.6 | Nc1cccc(C(=O)O)c1 |
| > 29.3 | CCOC(=O)c1c(C)[nH]c(C)c1C=O |
| 0.4 (≈ 1.31 µM) | CCOC(=O)c1sc(=NC(=O)c2ccccc2)n(C)c1C |
| > 35 | Cc1ccc(C)c(Oc2cc(F)nc(N)n2)c1 |
| > 47.7 | Cc1cccnc1NC(=O)CCNC(=O)c1ccccc1Cl |

| solubility kinetic [µg/mL] | SMILES |
| --- | --- |
| 2.4 (≈ 8.07 µM) | Cc1ccc(C23CC4CC(CC(C(=O)N(C)C)(C4)C2)C3)cc1 |
| > 37.8 | NC(=O)c1cnn(-c2ccc3ccccc3c2)c1N |
| 32.2 (≈ 136 µM) | COc1ccc([C@@H]2OC2(C(N)=O)C(N)=O)cc1 |
| 34.6 (≈ 94.2 µM) | COc1cccc(CN(C)C(=O)c2sccc2-c2ccccc2)c1OC |
| > 45.7 | Cc1ccc(N2C(=O)CC(N3CCSCC3)C2=O)c(C)c1 (stereo unspecified) |
| 31.3 (≈ 126 µM) | Cc1ccnc(NS(=O)(=O)c2ccccc2)c1 |
| > 45.5 | CN(C)C(=O)Oc1cccc([N+](C)(C)C)c1.[Br-] |
| > 49.2 | Cc1cc(S(=O)(=O)NCCCn2ccnc2)c(C)cc1Cl |
| 13.5 (≈ 49 µM) | COc1ccc(C(=O)Cn2cc([N+](=O)[O-])nc2C)cc1 |
| > 42.1 | O=c1[nH]c(NCCO)nnc1Cc1ccc(Cl)cc1 |
| 15.2 (≈ 49.2 µM) | Cc1ccc(C(=O)O/N=C(\N)Cc2cccs2)c(Cl)c1 |
| > 51.4 | Cc1cc(C)c(C)c(S(=O)(=O)N[C@@H](C)C(=O)OCC(N)=O)c1C |
| 7.5 (≈ 22.8 µM) | NS(=O)(=O)c1ccc(NC(=O)c2ccc3nccnc3c2)cc1 |
| < 0.7 | Fc1ccc(C2CC(c3ccco3)=Nc3ccccc3S2)cc1 (stereo unspecified) |
| 0.4 (≈ 1.43 µM) | Cc1cccc2c(N=O)c(O)n(CCc3ccccc3)c12 |
| 0.3 (≈ 1.05 µM) | Cc1cccnc1Nc1nc(-c2ccc(F)cc2)cs1 |
